Data as given in US20260015416A1, “TREATMENT OF DRUG-RESISTANT HEPATOCELLULAR CARCINOMA” (Alentis Therapeutics AG, priority 2022, published 2026).

System: HCC patient-derived spheroids (primary HCC tumorspheres)
Experiment: HCC patient-derived spheroid viability (CellTiterGlo 3D, ATP quantification)
Format: cell-based, human
Details: HCC spheroids from 15 different HCC patients; 6 days; H3L3 10 μg/mL, sorafenib 10 μM, nivolumab 10 μg/mL; vs control mAb; FIG. 1C
Text: Fragments of tumor tissue (5×5 mm to 8×8 mm size) were excised from tumor mass of HCC patients (n=15 different donors, Table 2) and then processed with enzymatic and mechanical dissociation to generate clusters of tumor cells similarly as described recently (Crouchet E, et al., Nat Commun 2021; 12:5525; Jühling F, et al., Gut 2021; 70:157-69). Aggregates of cells were assembled into spheroids in 96-well Black/Clear Bottom Low Flange Ultra-Low Attachment Microplates (Corning) and cultured in MammoCult basal medium (STEMCELL Technologies), supplemented with human proliferation supplement (3.4%), hydrocortisone (0.056%), heparin (0.011%) and 50% patients' own serum.
Tumorspheres were treated for 6 days with 10 μg/mL isotype control mAb, with 10 μg/mL anti-Claudin-1 mAb “H3L3” (Table 1), with sorafenib (10 μM, Selleckchem) or with Nivolumab (10 μg/mL, Selleckchem) with at least duplicates per condition. Tumorsphere viability was assessed at day 6 using CellTiterGlo 3D (Promega) according to the manufacturer's instructions.

Molecule	response rate (defined as a mean decrease in cell viability of >15%) [%]
CNC(=O)c1cc(Oc2ccc(NC(=O)Nc3ccc(Cl)c(C(F)(F)F)c3)cc2)ccn1 [sorafenib, 4-[4-[[4-chloro-3-(trifluoromethyl)phenyl]carbamoylamino]phenoxy]-N -methyl-pyridine-2-carboxamide, reference compound]	33
nivolumab [reference compound]	15
